The source of these data is PubChem BioAssay (NCI).

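Exposure lasted 48 hours, with cells grown in 96-well plates and compounds tested at five concentrations. GI50 = concentration required for 50% inhibition of growth. TGI is the concentration that stops growth completely.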

Test systems include HOP-62 NSCLC; K-562 leukemia; SK-MEL-28 melanoma; OVCAR-8 ovarian; A549 NSCLC; NCI-H23 lung; UACC-62 melanoma; MDA-MB-435; MCF7 breast.
Assay in all cases: NCI-60 cell line screen, 48 h

Take `CC1=NNC(=O)C2CCC(=O)N12` (centres undefined): the TGI with HOP-62 NSCLC, in the test on K-562 leukemia, with SK-MEL-28 melanoma, with OVCAR-8 ovarian and in the test with A549 NSCLC was more than 100 µM throughout.
On to `COc1cc(C(Cc2ccccc2)NC(C)=O)oc(=O)c1` (centres undefined), for which the TGI in the test on NCI-H23 lung, with HOP-62 NSCLC, in the test with K-562 leukemia, in the test on UACC-62 melanoma, in the test with SK-MEL-28 melanoma and with OVCAR-8 ovarian was more than 100 µM in each case. The TGI in the test with A549 NSCLC is more than 100 µM.
As for `[N-]=[N+]=NC12CC3C4CC5CC3C(C1)C(C5)C4C2`, the TGI in the test on NCI-H23 lung, in the test with HOP-62 NSCLC, in the test on K-562 leukemia, with UACC-62 melanoma, in the test with SK-MEL-28 melanoma and with OVCAR-8 ovarian was more than 100 µM in each case. The TGI in the test on A549 NSCLC is more than 100 µM.
For `CC(C)c1ccccc1NC(=O)CCc1n[nH]c(=S)o1`, the TGI was more than 100 µM with NCI-H23 lung; more than 100 µM in the test on HOP-62 NSCLC; more than 73.1 µM in the test with K-562 leukemia; more than 100 µM with UACC-62 melanoma; more than 100 µM in the test on SK-MEL-28 melanoma; more than 100 µM in the test with OVCAR-8 ovarian. In the test on A549 NSCLC, this compound gave a TGI of more than 100 µM.
On to `S=C(Nc1ccccc1)N(/N=C/C=C/c1ccccc1)c1nnc(-c2ccccc2)c(-c2ccccc2)n1`, for which the TGI in the test with NCI-H23 lung, in the test with HOP-62 NSCLC, in the test on K-562 leukemia, in the test on UACC-62 melanoma, in the test on SK-MEL-28 melanoma and in the test on OVCAR-8 ovarian was more than 100 µM each time. Moreover, the TGI in the test with A549 NSCLC is more than 100 µM.
In the case of `CCC[CH2][Sn]1([CH2]CCC)[O]N=C(c2ccccc2)C(c2ccccc2)[O]1` (centres undefined), the GI50 in the test on NCI-H23 lung was 1.28 µM; in the test with HOP-62 NSCLC, 3.24 µM; in the test with K-562 leukemia, 0.387 µM; with UACC-62 melanoma, 1.42 µM; with SK-MEL-28 melanoma, 1.36 µM; in the test on OVCAR-8 ovarian it was 1.87 µM. The GI50 in the test on A549 NSCLC was 10.5 µM. The TGI turned out to be 2.64 µM with NCI-H23 lung; 7.93 µM in the test with HOP-62 NSCLC; 2.38 µM with K-562 leukemia; 2.81 µM with UACC-62 melanoma; 2.64 µM in the test on SK-MEL-28 melanoma; 3.96 µM with OVCAR-8 ovarian. Further, the TGI with A549 NSCLC was found to be 22.3 µM.
Turning to `Cn1c2c(c3ccccc31)C1CCCCCCC1C1C(=O)OC(=O)C21` (centres undefined), the TGI in the test with NCI-H23 lung was more than 100 µM; with K-562 leukemia, 75.3 µM; with UACC-62 melanoma, more than 100 µM; with SK-MEL-28 melanoma it was more than 100 µM; in the test with OVCAR-8 ovarian it was more than 100 µM; with A549 NSCLC, more than 100 µM.
Consider `O=[N+]([O-])c1ccc(C2=Nn3cnnc3SC2)o1`, for which the TGI with HOP-62 NSCLC was determined as 89.5 µM; with K-562 leukemia, 42.3 µM; in the test on SK-MEL-28 melanoma it was 31.1 µM; in the test on OVCAR-8 ovarian it was 53.9 µM; in the test on A549 NSCLC it was 56.7 µM.
For `COc1cccc(/C=C/c2cc(OC)c(OC)c(OC)c2)c1`, the TGI in the test with NCI-H23 lung, in the test on HOP-62 NSCLC, in the test on K-562 leukemia, with UACC-62 melanoma, in the test with SK-MEL-28 melanoma and with OVCAR-8 ovarian was more than 100 µM in each case. Besides, the TGI with A549 NSCLC is more than 100 µM.
With `CN(C)c1nc2ccccc2[nH]1`, the TGI with NCI-H23 lung, in the test with HOP-62 NSCLC, with K-562 leukemia, with UACC-62 melanoma, in the test on SK-MEL-28 melanoma and with OVCAR-8 ovarian was more than 100 µM in each case. In the test on A549 NSCLC, this compound registered a TGI of more than 100 µM.
As for `CN1CCN(CCOc2ccc(-c3cnc4c(-c5ccccc5F)cnn4c3)cc2)CC1`, the GI50 in the test on NCI-H23 lung was 1.7 µM; in the test with MDA-MB-435 it was 1.7 µM; with HOP-62 NSCLC it was 1.7 µM; in the test with UACC-62 melanoma, 1.69 µM; in the test on MCF7 breast, 1.32 µM; with SK-MEL-28 melanoma it was 1.7 µM. Besides, in the test with OVCAR-8 ovarian, the GI50 is 2.92 µM. Moreover, the TGI in the test on NCI-H23 lung is 3.19 µM; in the test with MDA-MB-435, 3.1 µM; with HOP-62 NSCLC it was 3.54 µM; in the test with UACC-62 melanoma, 3.17 µM; with MCF7 breast, 2.97 µM; with SK-MEL-28 melanoma, 3.07 µM. The compound also came in with a TGI in the test with OVCAR-8 ovarian of 10.6 µM.
In the case of `NNC(=S)N/N=C(\CC1OC(=O)c2ccccc21)c1ccccc1O` (centres undefined), the TGI in the test on NCI-H23 lung, in the test with HOP-62 NSCLC, in the test with K-562 leukemia, with UACC-62 melanoma, with SK-MEL-28 melanoma and in the test on OVCAR-8 ovarian was more than 100 µM each time. The compound also yielded a TGI in the test on A549 NSCLC of more than 100 µM.
`Cc1ccc(NC(=O)C(=O)C(C(=O)c2ccc3ccccc3c2)C2OC(=O)c3ccccc32)cc1C` (centres undefined): the TGI amounted to 18 µM with NCI-H23 lung; 35.7 µM in the test with HOP-62 NSCLC; 59.7 µM in the test with K-562 leukemia; 30.7 µM in the test on UACC-62 melanoma; 26.9 µM in the test with SK-MEL-28 melanoma; 66.2 µM with OVCAR-8 ovarian. In addition, the TGI with A549 NSCLC turned out to be 82.4 µM.
As for `N#CC(N)(C(=O)CCC(=O)Nc1cccc(Cl)c1)c1ccc(Cl)cc1` (centres undefined), the TGI in the test on NCI-H23 lung, with HOP-62 NSCLC, in the test on K-562 leukemia, with UACC-62 melanoma, in the test on SK-MEL-28 melanoma and in the test on OVCAR-8 ovarian was more than 100 µM in each case. This compound had a TGI in the test with A549 NSCLC of more than 100 µM.
On to `O=C(/C=C/c1ccccc1O)c1ccccc1O`, for which the TGI in the test on NCI-H23 lung, in the test on HOP-62 NSCLC, with K-562 leukemia, with UACC-62 melanoma, in the test on SK-MEL-28 melanoma and in the test with OVCAR-8 ovarian was more than 100 µM in each case. The same compound yielded a TGI in the test with A549 NSCLC of more than 100 µM.
`O=S1(=O)C[C@H](O)[C@H](O)CS1`: the TGI in the test with NCI-H23 lung, in the test with HOP-62 NSCLC, in the test on K-562 leukemia, in the test with UACC-62 melanoma, with SK-MEL-28 melanoma and in the test on OVCAR-8 ovarian was more than 100 µM throughout. The compound also displayed a TGI in the test with A549 NSCLC of more than 100 µM.
In the case of `CC(C)CCN1c2nc(Nc3cc(F)c(O)c(F)c3)ncc2N(C)C(=O)C1C` (centres undefined), the GI50 in the test on NCI-H23 lung is 5.27 µM; with MDA-MB-435, 1.29 µM; with HOP-62 NSCLC it was 6.66 µM; in the test on K-562 leukemia it was 2.63 µM; in the test with UACC-62 melanoma, 4.75 µM; in the test with MCF7 breast, 2.85 µM. For the same compound, the GI50 is 10.9 µM in the test on SK-MEL-28 melanoma, 17.6 µM in the test on OVCAR-8 ovarian and 4.88 µM with A549 NSCLC. For the same compound, the TGI in the test with NCI-H23 lung is 67.8 µM; in the test with MDA-MB-435, 55.8 µM; in the test on HOP-62 NSCLC, more than 100 µM; with K-562 leukemia, more than 33.3 µM; in the test with UACC-62 melanoma, 23.8 µM; in the test with MCF7 breast, 18.1 µM. The figures for the TGI with SK-MEL-28 melanoma, with OVCAR-8 ovarian and with A549 NSCLC were more than 95.8 µM, more than 100 µM and 37.6 µM, respectively.
